Measurements from PubChem BioAssay AID2060508 (Molecular Pharmacology Branch, DTP, NCI, 2025).

System: 454973-116-R2-J3-PDC spheroids, viability, % test/control
Assay: Anticancer human tumor 454973-116-R2-J3-PDC patient-derived pancreatic carcinoma cell line growth inhibition [GQUAD]
Details: spheroids with HUVEC and MSC; for IC50: curve of first compound; for viability, T/C: stronger effect = lower value
In short: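 Tumor cells were grown as complex spheroids with HUVEC endothelial cells and mesenchymal stem cells as stroma. G-quadruplex stabilizers were combined with targeted agents over half-log dilutions from near the clinical Cmax, or from 10 microM.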

[1] = second compound 0.0316 µM, first compound 0.0316 µM
[2] = second compound 0.0316 µM, first compound 0.1 µM
[3] = second compound 0.0316 µM, first compound 0.316 µM
[4] = second compound 0.0316 µM, first compound 1 µM
[5] = second compound 0.0316 µM, first compound 3.16 µM
[6] = second compound 0.0316 µM, first compound 10 µM
[7] = second compound 0.1 µM, first compound 0.0316 µM
[8] = second compound 0.1 µM, first compound 0.1 µM
[9] = second compound 0.1 µM, first compound 0.316 µM
[10] = second compound 0.1 µM, first compound 1 µM
[11] = second compound 0.1 µM, first compound 3.16 µM
[12] = second compound 0.1 µM, first compound 10 µM
[13] = second compound 0.316 µM, first compound 0.0316 µM
[14] = second compound 0.316 µM, first compound 0.1 µM
[15] = second compound 0.316 µM, first compound 0.316 µM
[16] = second compound 0.316 µM, first compound 1 µM
[17] = second compound 0.316 µM, first compound 3.16 µM
[18] = second compound 0.316 µM, first compound 10 µM
[19] = second compound 1 µM, first compound 0.0316 µM
[20] = second compound 1 µM, first compound 0.1 µM
[21] = second compound 1 µM, first compound 0.316 µM
[22] = second compound 1 µM, first compound 1 µM
[23] = second compound 1 µM, first compound 3.16 µM
[24] = second compound 1 µM, first compound 10 µM
[25] = second compound 3.16 µM, first compound 0.0316 µM
[26] = second compound 3.16 µM, first compound 0.1 µM
[27] = second compound 3.16 µM, first compound 0.316 µM
[28] = second compound 3.16 µM, first compound 1 µM
[29] = second compound 3.16 µM, first compound 3.16 µM
[30] = second compound 3.16 µM, first compound 10 µM
[31] = second compound 10 µM, first compound 0.0316 µM
[32] = second compound 10 µM, first compound 0.1 µM
[33] = second compound 10 µM, first compound 0.316 µM
[34] = second compound 10 µM, first compound 1 µM
[35] = second compound 10 µM, first compound 3.16 µM
[36] = second compound 10 µM, first compound 10 µM
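Further: spheroids exposed to compounds for seven days.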
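Wherever viability, T/C is given: 100% = DMSO vehicle control viability.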

Structure (SMILES): O=C(NO)c1cnc(N2CCN(S(=O)(=O)c3ccc4ccccc4c3)CC2)nc1 + Cc1[nH]c2ccc(F)cc2c1-c1nc2c3cccnc3c3ncccc3c2[nH]1
- IC50 (second compound 0.0316 µM): 221 nM
- IC50 (second compound 0.1 µM): 360 nM
- IC50 (second compound 0.316 µM): 384 nM
- IC50 (second compound 1 µM): 476 nM
- IC50 (second compound 3.16 µM): 464 nM
- IC50 (second compound 10 µM): 533 nM
- viability, T/C [1]: 108%
- viability, T/C [2]: 84.8%
- viability, T/C [3]: 35.3%
- viability, T/C [4]: 2.53%
- viability, T/C [5]: 0.14%
- viability, T/C [6]: 0.29%
- viability, T/C [7]: 108%
- viability, T/C [8]: 104%
- viability, T/C [9]: 55.7%
- viability, T/C [10]: 4.86%
- viability, T/C [11]: 0.14%
- viability, T/C [12]: 0.64%
- viability, T/C [13]: 121%
- viability, T/C [14]: 96.2%
- viability, T/C [15]: 62.1%
- viability, T/C [16]: 10%
- viability, T/C [17]: 0.1%
- viability, T/C [18]: 1.14%
- viability, T/C [19]: 89.6%
- viability, T/C [20]: 92.1%
- viability, T/C [21]: 73%
- viability, T/C [22]: 8.33%
- viability, T/C [23]: 0.1%
- viability, T/C [24]: 0.86%
- viability, T/C [25]: 105%
- viability, T/C [26]: 93.7%
- viability, T/C [27]: 66.9%
- viability, T/C [28]: 18.1%
- viability, T/C [29]: 0.16%
- viability, T/C [30]: 0.16%
- viability, T/C [31]: 93.6%
- viability, T/C [32]: 90.2%
- viability, T/C [33]: 76.9%
- viability, T/C [34]: 17.7%
- viability, T/C [35]: 0.22%
- viability, T/C [36]: 0.21%

Structure (SMILES): CC(C)(O)C1CCC(Nc2ccc3ncc(-c4cccc(C(F)(F)F)c4)n3n2)CC1 (stereo not drawn) + Cc1[nH]c2ccc(F)cc2c1-c1nc2c3cccnc3c3ncccc3c2[nH]1
- IC50 (second compound 0.0316 µM): 1860 nM
- IC50 (second compound 0.1 µM): 1870 nM
- IC50 (second compound 0.316 µM): 1840 nM
- IC50 (second compound 1 µM): 1580 nM
- IC50 (second compound 3.16 µM): 1630 nM
- IC50 (second compound 10 µM): 1390 nM
- viability, T/C [1]: 112%
- viability, T/C [2]: 97.4%
- viability, T/C [3]: 96.6%
- viability, T/C [4]: 76.8%
- viability, T/C [5]: 21.8%
- viability, T/C [6]: 32.2%
- viability, T/C [7]: 108%
- viability, T/C [8]: 100%
- viability, T/C [9]: 92.1%
- viability, T/C [10]: 78.1%
- viability, T/C [11]: 23.1%
- viability, T/C [12]: 29.8%
- viability, T/C [13]: 102%
- viability, T/C [14]: 98.1%
- viability, T/C [15]: 105%
- viability, T/C [16]: 78.4%
- viability, T/C [17]: 18.3%
- viability, T/C [18]: 31.6%
- viability, T/C [19]: 98.2%
- viability, T/C [20]: 95.6%
- viability, T/C [21]: 95.5%
- viability, T/C [22]: 67.1%
- viability, T/C [23]: 23.8%
- viability, T/C [24]: 22.8%
- viability, T/C [25]: 95.1%
- viability, T/C [26]: 98.8%
- viability, T/C [27]: 90.9%
- viability, T/C [28]: 67.3%
- viability, T/C [29]: 21.4%
- viability, T/C [30]: 31.4%
- viability, T/C [31]: 87.6%
- viability, T/C [32]: 81.3%
- viability, T/C [33]: 89%
- viability, T/C [34]: 59.6%
- viability, T/C [35]: 21.7%
- viability, T/C [36]: 30.7%

Structure (SMILES): O=C(c1cc(Cc2n[nH]c(=O)c3ccccc23)ccc1F)N1CCN(C(=O)C2CC2)CC1 + CN(C)c1ccc(Nc2c3ccc(NC(=O)CCN4CCCC4)cc3nc3cc(NC(=O)CCN4CCCC4)ccc23)cc1
- IC50 (second compound 0.0316 µM): > 10000 nM
- IC50 (second compound 0.1 µM): > 10000 nM
- IC50 (second compound 0.316 µM): > 10000 nM
- IC50 (second compound 1 µM): > 10000 nM
- IC50 (second compound 3.16 µM): > 10000 nM
- IC50 (second compound 10 µM): > 10000 nM
- viability, T/C [1]: 111%
- viability, T/C [2]: 95%
- viability, T/C [3]: 101%
- viability, T/C [4]: 97.3%
- viability, T/C [5]: 85.1%
- viability, T/C [6]: 61.4%
- viability, T/C [7]: 108%
- viability, T/C [8]: 96.7%
- viability, T/C [9]: 99.3%
- viability, T/C [10]: 93.1%
- viability, T/C [11]: 79.6%
- viability, T/C [12]: 60.8%
- viability, T/C [13]: 104%
- viability, T/C [14]: 91.6%
- viability, T/C [15]: 93.6%
- viability, T/C [16]: 88.2%
- viability, T/C [17]: 82.6%
- viability, T/C [18]: 65.1%
- viability, T/C [19]: 88.5%
- viability, T/C [20]: 91.9%
- viability, T/C [21]: 98.2%
- viability, T/C [22]: 74.5%
- viability, T/C [23]: 70.7%
- viability, T/C [24]: 59.3%
- viability, T/C [25]: 90.7%
- viability, T/C [26]: 91.7%
- viability, T/C [27]: 92.7%
- viability, T/C [28]: 74.1%
- viability, T/C [29]: 75.2%
- viability, T/C [30]: 57.1%
- viability, T/C [31]: 75.8%
- viability, T/C [32]: 75.2%
- viability, T/C [33]: 67.9%
- viability, T/C [34]: 67.4%
- viability, T/C [35]: 63.5%
- viability, T/C [36]: 51.7%

Structure (SMILES): COc1ncnc(C2CC2)c1-c1ncc2cnn(Cc3ccc(-c4nc(C(F)(F)F)cn4C(C)C)cc3)c2n1 + CN(C)c1ccc(Nc2c3ccc(NC(=O)CCN4CCCC4)cc3nc3cc(NC(=O)CCN4CCCC4)ccc23)cc1
- IC50 (second compound 0.0316 µM): > 10000 nM
- IC50 (second compound 0.1 µM): > 10000 nM
- IC50 (second compound 0.316 µM): > 10000 nM
- IC50 (second compound 1 µM): > 10000 nM
- IC50 (second compound 3.16 µM): > 10000 nM
- IC50 (second compound 10 µM): > 10000 nM
- viability, T/C [1]: 104%
- viability, T/C [2]: 113%
- viability, T/C [3]: 97.6%
- viability, T/C [4]: 102%
- viability, T/C [5]: 99.5%
- viability, T/C [6]: 102%
- viability, T/C [7]: 102%
- viability, T/C [8]: 114%
- viability, T/C [9]: 114%
- viability, T/C [10]: 108%
- viability, T/C [11]: 84.8%
- viability, T/C [12]: 95.4%
- viability, T/C [13]: 94.2%
- viability, T/C [14]: 104%
- viability, T/C [15]: 102%
- viability, T/C [16]: 101%
- viability, T/C [17]: 91.6%
- viability, T/C [18]: 90.6%
- viability, T/C [19]: 96.3%
- viability, T/C [20]: 96.2%
- viability, T/C [21]: 101%
- viability, T/C [22]: 106%
- viability, T/C [23]: 94.2%
- viability, T/C [24]: 97.1%
- viability, T/C [25]: 86.2%
- viability, T/C [26]: 91.6%
- viability, T/C [27]: 105%
- viability, T/C [28]: 87%
- viability, T/C [29]: 93.5%
- viability, T/C [30]: 78.5%
- viability, T/C [31]: 71%
- viability, T/C [32]: 69.4%
- viability, T/C [33]: 77.2%
- viability, T/C [34]: 66.5%
- viability, T/C [35]: 61.9%
- viability, T/C [36]: 50.8%
